Data reported in US11292801B2, “Calpain modulators and therapeutic uses thereof” (Blade Therapeutics, Inc., priority 2016, dated 2022).

Experiments:
[1] = molecular target: T1, Human Calpain 2/NS1 (Homo sapiens, UniProt P17655); test: Biochemical inhibition of calpain 2, continuous fluorescence (FRET substrate) assay; details: mean, read-out: Human Calpain 2/NS1 IC50 (nM)_MEAN
T1 sequence (P17655 1-700): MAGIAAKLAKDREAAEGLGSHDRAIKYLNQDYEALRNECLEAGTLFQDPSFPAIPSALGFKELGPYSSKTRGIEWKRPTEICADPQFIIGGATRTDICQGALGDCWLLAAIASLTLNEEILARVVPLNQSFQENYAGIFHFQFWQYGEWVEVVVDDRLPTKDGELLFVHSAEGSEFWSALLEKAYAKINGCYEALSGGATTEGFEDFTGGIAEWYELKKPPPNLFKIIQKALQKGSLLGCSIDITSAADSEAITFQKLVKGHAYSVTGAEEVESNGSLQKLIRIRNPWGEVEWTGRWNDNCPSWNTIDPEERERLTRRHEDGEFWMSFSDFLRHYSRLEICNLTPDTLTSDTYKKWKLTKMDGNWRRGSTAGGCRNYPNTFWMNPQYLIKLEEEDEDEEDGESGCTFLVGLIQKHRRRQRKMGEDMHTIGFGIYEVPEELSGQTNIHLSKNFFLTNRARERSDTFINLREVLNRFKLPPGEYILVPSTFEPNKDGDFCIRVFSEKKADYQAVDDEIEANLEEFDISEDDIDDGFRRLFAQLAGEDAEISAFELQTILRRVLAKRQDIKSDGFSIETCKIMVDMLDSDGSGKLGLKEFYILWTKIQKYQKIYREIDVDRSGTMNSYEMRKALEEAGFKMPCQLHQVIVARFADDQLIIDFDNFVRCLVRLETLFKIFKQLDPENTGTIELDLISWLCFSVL
T1 sequence (P04632 1-268 partner): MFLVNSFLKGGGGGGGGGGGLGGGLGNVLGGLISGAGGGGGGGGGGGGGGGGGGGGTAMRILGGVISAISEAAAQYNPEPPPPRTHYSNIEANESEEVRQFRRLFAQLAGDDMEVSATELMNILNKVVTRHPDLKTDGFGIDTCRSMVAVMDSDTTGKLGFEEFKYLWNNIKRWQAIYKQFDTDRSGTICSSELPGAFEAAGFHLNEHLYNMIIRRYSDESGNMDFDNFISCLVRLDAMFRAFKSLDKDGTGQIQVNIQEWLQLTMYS
Method: (§1) Calpain 1, 2, and 9 activity and inhibition thereof are assessed by means of a continuous fluorescence assay. The SensoLyte 520 Calpain substrate (Anaspec Inc) is optimized for detecting calpain activity. This substrate contains a novel internally quenched 5-FAM/QXL™ 520 FRET pair. Calpains 1, 2, and 9 cleave the FRET substrate into two separate fragments resulting in an increase of 5-FAM fluorescence that is proportional to calpain activity.
(§2) Assays are typically setup in black 384-well plates using automated liquid handling as follows. Calpain assay base buffer typically contains 50 mM Tris, pH˜7.5, 100 mM NaCl and 1 mM DTT. Inhibitors are serially diluted in DMSO and used to setup 2× mixtures with calpains in the aforementioned buffer. After incubation at ambient temperature (25C), the reaction is initiated by adding a 2× mix of the fluorescent peptide substrate and CaCl2) (required for in-situ calpain activation) in the same buffer. Reaction progress curve data are typically collected for 10 min using excitation/emission wavelengths of 490 nm/520 nm on SpectraMax i3× or the FLIPR-Tetra plate readers (Molecular Devices Inc). Reaction rates were calculated from progress curve slopes typically over 1-5 min. Dose response curves (rate vs. log inhibitor concentration) were typically fit to a 4-parameter logistic function to extract IC50 values.

[2] = molecular target: T2, Human Calpain 1/NS1 (Homo sapiens, UniProt P07384); test: Biochemical inhibition of calpain 1, continuous fluorescence (FRET substrate) assay; details: mean, read-out: Human Calpain 1/NS1 IC50 (nM)_MEAN
T2 sequence (P07384 1-714): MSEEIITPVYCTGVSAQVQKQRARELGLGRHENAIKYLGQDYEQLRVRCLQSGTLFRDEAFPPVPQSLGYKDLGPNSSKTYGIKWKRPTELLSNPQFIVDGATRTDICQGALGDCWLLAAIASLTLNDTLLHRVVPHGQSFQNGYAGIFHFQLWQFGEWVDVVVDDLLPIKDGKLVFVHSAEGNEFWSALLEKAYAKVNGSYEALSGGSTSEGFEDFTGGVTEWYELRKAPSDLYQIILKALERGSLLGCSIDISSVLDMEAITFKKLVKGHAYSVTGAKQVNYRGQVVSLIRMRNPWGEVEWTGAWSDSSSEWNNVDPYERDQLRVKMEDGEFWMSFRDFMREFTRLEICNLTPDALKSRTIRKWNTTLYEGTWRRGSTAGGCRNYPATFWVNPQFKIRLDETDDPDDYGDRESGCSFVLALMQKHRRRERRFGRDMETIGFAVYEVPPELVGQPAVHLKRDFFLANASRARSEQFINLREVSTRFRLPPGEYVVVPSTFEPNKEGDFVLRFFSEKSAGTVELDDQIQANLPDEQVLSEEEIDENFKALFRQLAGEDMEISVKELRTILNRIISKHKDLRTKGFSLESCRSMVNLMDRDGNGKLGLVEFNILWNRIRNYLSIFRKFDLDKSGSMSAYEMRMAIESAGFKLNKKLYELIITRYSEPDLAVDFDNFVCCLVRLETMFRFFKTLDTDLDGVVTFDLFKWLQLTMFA
T2 sequence (P04632 1-268 partner): T1 sequence (P04632 1-268 partner)
Method: as §1, §2

[3] = molecular target: T3, Human Calpain 9/NS1 (Homo sapiens, UniProt O14815); test: Biochemical inhibition of calpain 9, continuous fluorescence (FRET substrate) assay; details: mean, read-out: Human Calpain 9/NS1 IC50 (nM)_MEAN
T3 sequence (O14815 1-690): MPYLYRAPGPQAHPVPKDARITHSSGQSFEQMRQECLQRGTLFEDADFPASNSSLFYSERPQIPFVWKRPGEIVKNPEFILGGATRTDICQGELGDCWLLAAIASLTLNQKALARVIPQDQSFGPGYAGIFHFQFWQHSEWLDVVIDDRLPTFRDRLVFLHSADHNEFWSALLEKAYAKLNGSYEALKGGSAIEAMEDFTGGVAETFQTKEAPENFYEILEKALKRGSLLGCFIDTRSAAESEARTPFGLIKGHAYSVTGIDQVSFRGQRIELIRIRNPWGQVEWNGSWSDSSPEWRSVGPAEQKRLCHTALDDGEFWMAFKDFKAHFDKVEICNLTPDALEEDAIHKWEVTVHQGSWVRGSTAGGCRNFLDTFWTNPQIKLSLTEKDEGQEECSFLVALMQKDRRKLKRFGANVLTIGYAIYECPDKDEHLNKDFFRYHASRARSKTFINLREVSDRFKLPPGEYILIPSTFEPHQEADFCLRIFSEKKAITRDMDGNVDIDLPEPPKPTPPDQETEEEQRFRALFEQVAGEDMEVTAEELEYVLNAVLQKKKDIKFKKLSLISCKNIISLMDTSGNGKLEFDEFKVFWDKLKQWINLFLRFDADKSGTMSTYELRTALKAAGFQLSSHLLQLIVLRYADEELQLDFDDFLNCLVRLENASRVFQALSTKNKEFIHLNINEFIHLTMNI
T3 sequence (P04632 1-268 partner): T1 sequence (P04632 1-268 partner)
Method: as §1, §2

| IC50 [1] | IC50 [2] | IC50 [3] | SMILES |
| --- | --- | --- | --- |
| < 3000 nM | < 3000 nM | < 3000 nM | O=C(NC1CC1)C(=O)[C@@H]1Cc2ccc(cc2)OCCCCOc2ccc3c(cnn3-c3ncccc3C(=O)N1)c2 [Compound 68, N-cyclopropyl-2-oxo-2-((5S)-3-oxo-1^1H-8,13-dioxa-4-aza-1(1,5)-indazola-2(2,3)-pyridina-7(1,4)-benzenacyclotridecaphane-5-yl)acetamide] |
| < 3000 nM | < 3000 nM | < 3000 nM | NC(=O)C(=O)[C@@H]1CCCCCCOc2ccnc(c2)-c2ccccc2C(=O)N1 [Compound 132, (S)-2-oxo-2-(3-oxo-12-oxa-4-aza-1(2,4)-pyridina-2(1,2)-benzenacyclododecaphane-5-yl)acetamide] |
| < 3000 nM | < 3000 nM | < 3000 nM | NC(=O)C(=O)[C@@H]1CCCCCCOc2ccnc(n2)-c2ccccc2C(=O)N1 [Compound 134, (S)-2-oxo-2-(3-oxo-12-oxa-4-aza-1(2,4)-pyrimidina-2(1,2)-benzenacyclododecaphane-5-yl)acetamide] |
| < 3000 nM | < 3000 nM | < 3000 nM | O=C[C@@H]1C/C=C/CCCCCCCc2ccccc2C(=O)N1 [Compound 23, (S,E)-1-Oxo-2,3,4,7,8,9,10,11,12,13-decahydro-1h-benzo[c][1]aza-cyclopentadecine-3-carbaldehyde] |
| < 3000 nM | 3000 to 10000 nM | < 3000 nM | O=C[C@@H]1CC=CCOCCCOCc2ccccc2C(=O)N1 [Compound 11, (S)-13-Oxo-1,4,5,7,10,11,12,13-octahydro-3h-benzo[g][1,5]dioxa[10]aza-cyclopentadecine-11-carbaldehyde] |
| > 10000 nM | > 10000 nM | < 3000 nM | CN(C)c1ccc(CNC(=O)C(=O)C2CCCCOCCOCc3ccccc3C(=O)N2)cc1 (centres unmarked) [Compound 113, N-(4-(dimethylamino)benzyl)-2-oxo-2-(12-oxo-1,3,4,6,7,8,9,10,11,12-decahydrobenzo[f][1,4]dioxa[9]azacyclotetradecin-10-yl)acetamide] |
| < 3000 nM | < 3000 nM | < 3000 nM | O=C[C@@H]1CCCCCOc2ccnc(n2)-c2ccccc2C(=O)N1 [Compound 139, (S)-3-oxo-11-oxa-4-aza-1(2,4)-pyrimidina-2(1,2)-benzena-cycloundecaphane-5-carbaldehyde] |
| > 10000 nM | > 10000 nM | > 10000 nM | O=C1NC(C(=O)C(=O)N2CCOCC2)CCCCOCCOCc2ccccc21 (centres unmarked) [Compound 115, 1-Morpholino-2-(12-oxo-1,3,4,6,7,8,9,10,11,12-decahydrobenzo[f][1,4]dioxa[9]azacyclotetradecin-10-yl)ethane-1,2-dione] |
| > 10000 nM | > 10000 nM | > 10000 nM | Cc1cccc(Cl)c1CNC(=O)C(=O)C1CCCCOCCOCc2ccccc2C(=O)N1 (centres unmarked) [Compound 86, N-(2-chloro-6-methylbenzyl)-2-oxo-2-(12-oxo-1,3,4,6,7,8,9,10,11,12-decahydrobenzo[f][1,4]dioxa[9]azacyclotetradecin-10-yl)acetamide] |
| > 10000 nM | > 10000 nM | > 10000 nM | CN(C)CCCNC(=O)C(=O)C1CCCCOCCOCc2ccccc2C(=O)N1 (centres unmarked) [Compound 93, N-(3-(dimethylamino)propyl)-2-oxo-2-(12-oxo-1,3,4,6,7,8,9,10,11,12-decahydrobenzo[f][1,4]dioxa[9]azacyclotetradecin-10-yl)acetamide] |
| > 10000 nM | > 10000 nM | < 3000 nM | O=C(NCCc1cccc(Cl)c1)C(=O)C1CCCCOCCOCc2ccccc2C(=O)N1 (centres unmarked) [Compound 89, N-(3-chlorophenethyl)-2-oxo-2-(12-oxo-1,3,4,6,7,8,9,10,11,12-decahydrobenzo[f][1,4]dioxa[9]azacyclotetradecin-10-yl)acetamide] |
| 3000 to 10000 nM | > 10000 nM | < 3000 nM | CC(C)CCNC(=O)C(=O)C1CCCCOCCOCc2ccccc2C(=O)N1 (centres unmarked) [Compound 90, N-isopentyl-2-oxo-2-(12-oxo-1,3,4,6,7,8,9,10,11,12-decahydrobenzo[f][1,4]dioxa[9]azacyclotetradecin-10-yl)acetamide] |
| < 3000 nM | < 3000 nM | < 3000 nM | O=C[C@@H]1CCCCCOc2cccc(c2)-c2ncccc2C(=O)N1 [Compound 38, (S)-11-Oxo-3-oxa-10-aza-1(2,3)-pyridina-2(1,3)-benzenacycloundecaphane-9-carbaldehyde] |
| < 3000 nM | 3000 to 10000 nM | 3000 to 10000 nM | O=C[C@@H]1Cc2ccccc2C=CCCCCOc2ccccc2C(=O)N1 [Compound 13, (S)-19-Oxo-6,7,8,9,16,17,18,19-octahydrodibenzo[b,h][1]oxa[5]aza-cyclopentadecine-17-carbaldehyde] |
| 3000 to 10000 nM | > 10000 nM | < 3000 nM | O=C(NCCc1ccccc1)C(=O)C1CCCCOCCOCc2ccccc2C(=O)N1 (centres unmarked) [Compound 104, 2-Oxo-2-(12-oxo-1,3,4,6,7,8,9,10,11,12-decahydrobenzo[f][1,4]dioxa[9]aza-cyclotetradecin-10-yl)-N-phenethylacetamide] |
| > 10000 nM | > 10000 nM |  | O=C(NC1CCCC1)C(=O)C1CCCCOCCOCc2ccccc2C(=O)N1 (centres unmarked) [Compound 109, N-cyclopentyl-2-oxo-2-(12-oxo-1,3,4,6,7,8,9,10,11,12-decahydrobenzo[f][1,4]dioxa[9]azacyclotetradecin-10-yl)acetamide] |
